From ChEMBL document CHEMBL2074255, “Human intestinal H+/peptide cotransporter. Cloning, functional expression, and chromosomal localization” (J Biol Chem, 1995)
Values belong to the molecule of their own block, whether it stands above or below them. Residues, ends and D or L forms follow the SMILES beside them.

Columns and labels:
Type in all cases: functional, cell-based
[1] = target: T1, Solute carrier family 15 member 1 (Homo sapiens) (UniProt P46059); assay: TP_TRANSPORTER: inhibition of Gly-Sar uptake (Gly-Sar: 20 uM, Leu-Pro: 10000 uM) in PEPT1-expressing HeLa cells; parameters: scale not given: the % may be the effect or the level left
T1 sequence (whole entry): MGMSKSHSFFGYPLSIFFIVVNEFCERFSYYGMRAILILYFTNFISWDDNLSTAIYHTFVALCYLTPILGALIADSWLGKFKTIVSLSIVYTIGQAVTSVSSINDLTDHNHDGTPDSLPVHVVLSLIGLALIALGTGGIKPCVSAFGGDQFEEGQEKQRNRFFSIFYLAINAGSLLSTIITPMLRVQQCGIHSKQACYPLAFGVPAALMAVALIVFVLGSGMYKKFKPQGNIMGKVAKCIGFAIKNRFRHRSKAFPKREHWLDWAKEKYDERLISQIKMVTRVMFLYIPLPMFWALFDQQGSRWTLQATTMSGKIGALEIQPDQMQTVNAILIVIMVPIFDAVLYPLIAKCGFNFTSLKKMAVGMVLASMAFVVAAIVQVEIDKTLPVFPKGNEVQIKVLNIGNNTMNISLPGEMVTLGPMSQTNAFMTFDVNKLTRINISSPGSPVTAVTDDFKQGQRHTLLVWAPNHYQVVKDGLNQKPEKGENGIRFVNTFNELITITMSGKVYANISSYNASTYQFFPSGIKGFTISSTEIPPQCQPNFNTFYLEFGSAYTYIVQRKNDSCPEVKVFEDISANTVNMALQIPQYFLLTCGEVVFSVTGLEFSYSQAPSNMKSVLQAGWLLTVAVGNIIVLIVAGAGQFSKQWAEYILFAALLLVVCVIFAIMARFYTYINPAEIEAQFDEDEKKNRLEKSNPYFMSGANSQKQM

[2] = target: T1, Solute carrier family 15 member 1 (Homo sapiens); assay: TP_TRANSPORTER: inhibition of Gly-Sar uptake (Gly-Sar: 20 uM, Gly-Gly-Pro: 10000 uM) in PEPT1-expressing HeLa cells; parameters: scale not given: the % may be the effect or the level left
[3] = target: T1, Solute carrier family 15 member 1 (Homo sapiens); assay: TP_TRANSPORTER: inhibition of Gly-Sar uptake (Gly-Sar: 20 uM, Gly-Gly-Ile: 10000 uM) in PEPT1-expressing HeLa cells; parameters: scale not given: the % may be the effect or the level left
[4] = target: T1, Solute carrier family 15 member 1 (Homo sapiens); assay: TP_TRANSPORTER: inhibition of Gly-Sar uptake (Gly-Sar: 20 uM, Gly-Pro: 10000 uM) in PEPT1-expressing HeLa cells; parameters: scale not given: the % may be the effect or the level left
[5] = target: T1, Solute carrier family 15 member 1 (Homo sapiens); assay: TP_TRANSPORTER: inhibition of Gly-Sar uptake (Gly-Sar: 20 uM, Ala-Pro: 10000 uM) in PEPT1-expressing HeLa cells; parameters: scale not given: the % may be the effect or the level left
[6] = substrate: CN(CC(=O)O)C(=O)CN; assay: TP_TRANSPORTER: uptake in PEPT1-expressing HeLa cells

Activity [1]: 8%
Molecule: CC(C)C[C@H](N)C(=O)N1CCC[C@H]1C(=O)O (H-Leu-Pro-OH)

Activity [2]: 13%
Molecule: NCC(=O)NCC(=O)N1CCC[C@H]1C(=O)O (H-Gly-Gly-Pro-OH)

Activity [3]: 10%
Molecule: CC[C@H](C)[C@H](NC(=O)CNC(=O)CN)C(=O)O (H-Gly-Gly-Ile-OH)

Activity [4]: 7%
Molecule: NCC(=O)N1CCC[C@H]1C(=O)O (H-Gly-Pro-OH)

Activity [5]: 8%
Molecule: C[C@H](N)C(=O)N1CCC[C@H]1C(=O)O (H-Ala-Pro-OH)

B1: Solute carrier family 15 member 1 (Homo sapiens), P46059 (protein)
chain: T1 sequence (whole entry)
Km [6]: 290 µM
